US20040116456A1, “Remedies for psychoneurosis” (priority 2001, published 2004)
Where a name gives a salt, the structure may show the parent alone.

System: restless legs syndrome
Assay: Oral preparation given to patients diagnosed with restless legs syndrome
Assay type: in vivo, human
Details: 10 μg oral soft capsule; for time until abnormal sensation disappeared after taking the preparation: RLS patient
Procedure: A solution containing 10 μg of (−)-17-(cyclopropylmethyl)-3,14β-dihydroxy-4,5α-epoxy-6β[N-methyl-trans-3-(3-furyl)acrylamide]morphinan hydrochloric acid salt 1 [drawing 10]
was encapsulated into a soft capsule made of gelatin to obtain an oral preparation. This oral preparation was administered to two patients who had been diagnosed as restless legs syndrome. Both of the two patients complained abnormal itchy sensation on the lower limbs and sleep is sometimes disturbed. By taking the oral preparation, the abnormal sensation disappeared 2 hours after taking the preparation in one patient, and 4 hours after taking the preparation in another patient.

With `CN(C(=O)/C=C/c1ccoc1)[C@@H]1CC[C@@]2(O)C3Cc4ccc(O)c5c4[C@@]2(CCN3CC2CC2)[C@H]1O5` (single isomer, unassigned; (-)) [Compound 1, (−)-17-(cyclopropylmethyl)-3,14β-dihydroxy-4,5α-epoxy-6β[N-methyl-trans-3-(3-furyl)acrylamide]morphinan hydrochloric acid salt] the “time until abnormal sensation disappeared after taking the preparation” value (another patient) was 4 h, the “time until abnormal sensation disappeared after taking the preparation” value (one patient) was 2 h and the “duration of the effect for eliminating the abnormal sensation” value (both of the two RLS patients) was at least 24 h. For the same compound, the “sleep disturbance in the night” value (both of the two RLS patients) was “sleep disturbance did not occur” and the “therapeutic effect against restless legs syndrome” value (two RLS patients) was “clearly had therapeutic effect against restless legs syndrome”.
